From US20070099900A1, “Methods of modulating neurotrophin-mediated activity” (PainCeptor Pharma Corporation, priority 2005, published 2007)

Assays:
PC12 (TrkA & p75) = assay: 125I-NGF binding displacement in PC12 cells; design: species or system rat; settings: for NGF binding displacement, dose-response curve: PC12 cells expressing TrkA and p75
Description: The method for acquiring the PC12 data described in Table 1 is described herein in Example 1. Each experiment was done at least once with an n value of 4 for each data point. (n/a=not acquired)
All cells were incubated at 37° C. in 5% CO2. PC12 cells were maintained in RPMI-1640 medium supplemented with 10% fetal bovine serum (FBS). A875 human melanoma cells were maintained in DMEM with 10% FBS. HEK 293 cells were stably transfected with human TrkA plasmid (see below) and maintained in DMEM with 10% FBS and G418 (600 μg/mL) for selection.
NGF binding was evaluated using methods familiar to those who are skilled in the art. Briefly, cells expressing one or both NGF receptors (PC12: TrkA+p75; A875: p75 alone; HEK_TrkA: TrkA alone) were harvested by replacing the medium with calcium-magnesium free balanced salt (Grey's) solution and incubating at 37° C. for 15 min. For NGF binding, cells were resuspended at a concentration of 2×10^6 cells/mL in HEPES-Krebs-Ringer (HKR) buffer (10 mM HEPES; 125 mM NaCl; 4.8 mM KCl; 1.3 mM CaCl2; 1.2 mM MgSO4; 1.2 mM KH2PO4; 1 mg/ml BSA; 1 mg/ml glucose; pH 7.4) and exposed to ^125I-NGF (˜0.1 nM) in the presence or absence of varying concentrations of the compound. Non-specific binding was determined for reference by incubating ^125I-NGF with an excess of non-radioactive NGF in the abence of compound. Following a two-hour incubation period at 4° C., ^125I-NGF bound to the cells was quantified in a gamma radiation counter following separation from unbound NGF by filtration or centrifugation through glycerol (10% in HKR). Inhibition of binding was calculated as a percent of the specific binding (calculated as the differential between ^125I-NGF binding in the absence and presence of an excess of non-radioactive NGF without compound). Dose-response inhibition curves were typically generated with seven concentrations of a given compound, with three replicates for each concentration. For most compounds, multiple dose-response curves were generated.
The IC50 data shown in Table 1 were acquired using the procedure described herein using PC12 cells.

[1] = test system: NGF-induced Erk 1/2 phosphorylation in PC12 cells; assay: NGF-induced Erk 1/2 phosphorylation, Western blot; format: cell-based, rat; settings: NGF 5 ng/mL
Description: This assay is useful for establishing that the compounds of the invention are functional NGF antagonists, not receptor agonists (an agonist could conceivably block NGF binding but actually activate the receptor). Erk 1/2 is a kinase activated down stream of TrkA and is a well studied member of the NGF-induced signal transduction cascade.
PC12 cells expressing TrkA and p75 were acutely exposed to 5 ng/mL NGF (15 min; 37° C.; 5% CO2) that was pre-incubated (30 min; room temperature) with or without the compounds. Cells were lysed in Laemmli sample buffer (for SDS-PAGE) or a lysis buffer containing Triton X-100 (for ELISA). Following SDS-PAGE, proteins were electroblotted onto nitrocellulose and immunoprobed for phosphorylated Erk 1 and 2. Blocking and primary antibody incubations of immunoblots were performed in Tris-buffered saline-Tween (10 mM Tris, pH 8.0, 150 mM NaCl, and 0.2% Tween 20) supplemented with 5% (w/v) bovine serum albumin (BSA); secondary antibody incubations were performed in 5% (w/v) dried skim milk powder. Immunoreactive bands were detected by chemiluminescence.

[2] = Writhing Test (acetic acid abdominal contraction test); format: in vivo; settings: mice
Description: The acetic acid abdominal contraction test (Martinez et al., Pain 1999; 81: 179) was used to determine the efficacy of different compounds in a model of acute visceral chemical nociception. […] Compound or vehicle was administered (i.p. or s.c.) 15-45 minutes prior to the acetic acid injection. Each episode of writhing is characterized by a lengthwise stretching of the torso with a concomitant arching of the back.
Statistical analysis was performed using Prism™ 4.01 software package (GraphPad, San Diego, Calif., USA). The difference in response levels between treatment groups and control vehicle group was analyzed using an ANOVA followed by Bonferroni's method for post-hoc pair-wise comparisons. A p value <0.05 was considered to be significant
Animals were treated with vehicle (VEH) or Compound 91 (5 mg/kg i.p.; [CMP 1] and 50 mg/kg i.p. [CMP 2])) 10-20 minutes before the intraperitoneal injection of acetic acid, as described in this example.

O=C(O)c1ccc(Cl)c(N2C(=O)c3ccc4c5c(ccc(c35)C2=O)C(=O)N(c2cc(C(=O)O)ccc2Cl)C4=O)c1 [Compound 18, 3-[7-(1-chloro-4-carboxy-phenyl)-1,3,6,8-tetraoxo-3,6,7,8-tetrahydro-1H-benzo[lmn][3,8]phenanthrolin-2-yl]-4-chloro-benzoic acid]
NGF binding displacement, dose-response curve (PC12 (TrkA & p75)): effectively blocks NGF binding
PC12 (TrkA & p75) Single point (% max binding) Mean (PC12 (TrkA & p75); compound concentration 50 μM): *** (0 > *** > 30)

O=C1c2ccc3c4c(ccc(c24)C(=O)N1c1ccc(S(=O)(=O)O)cc1)C(=O)N(c1ccc(S(=O)(=O)O)cc1)C3=O [Compound 54, 4-(1,3,6,8-Tetraoxo-7-(4-benzenesulfonic acid)-3,6,7,8-tetrahydro-1H-benzo[lmn][3,8]phenanthrolin-2-yl)-benzenesulfonic acid]
PC12 (TrkA & p75) Single point (% max binding) Mean (PC12 (TrkA & p75); compound concentration 50 μM): *** (0 > *** > 30)

O=C(O)c1ccc(Cl)c(N2C(=O)c3ccc4c5c(ccc(c35)C2=O)C(=O)OC4=O)c1 [Compound 58, 4-Chloro-3-(1,3,6,8-tetraoxo-1,3,6,8-tetrahydro-2-oxa-7-aza-pyren-7-yl)-benzoic acid]
PC12 (TrkA & p75) Single point (% max binding) Mean (PC12 (TrkA & p75); compound concentration 50 μM): *** (0 > *** > 30)

O=C(O)CCCN1C(=O)c2ccc3c4c(ccc(c24)C1=O)C(=O)N(c1cc(C(=O)O)ccc1Cl)C3=O [Compound 59, 3-[7-(3-Carboxy-propyl)-1,3,6,8-tetraoxo-3,6,7,8-tetrahydro-1H-benzo[lmn][3,8]phenanthrolin-2-yl]-4-chloro-benzoic acid]
PC12 (TrkA & p75) Single point (% max binding) Mean (PC12 (TrkA & p75); compound concentration 50 μM): *** (0 > *** > 30)

O=C([O-])c1ccc2nc3c4ccc5c6c(ccc(c(=O)n3c2c1)c46)c(=O)n1c2cc(C(=O)[O-])ccc2nc51.[Na+].[Na+] [Compound 91]
NGF binding displacement, dose-response curve (PC12 (TrkA & p75)): effectively blocks NGF binding
Inhibition of NGF-induced Erk 1/2 phosphorylation [1]: inhibits NGF-induced Erk 1/2 phosphorylation
Antinociceptive effect in the Writhing Test ([2]; 5 and 50 mg/kg i.p., p<0.01 vs vehicle): significant antinociceptive effects
Chemically-induced abdominal contractions (number in 30 minutes) ([2]; i.p., n=6, vehicle 58±4, dose of the value (5 or 50 mg/kg) not stated): 16±9

O=c1c2ccc3c4c(ccc(c24)c2nc4ccccc4n12)c(=O)n1c2ccccc2nc31.[K+] [Compound 92, 1,3,6-trioxo-1,2,3,6-tetrahydro-benzo[lmn]benzo[4,5]imidazo[2,1-b][3,8]diphenanthroline potassium salt]
PC12 (TrkA & p75) Single point (% max binding) Mean (PC12 (TrkA & p75); compound concentration 50 μM): * (* > 50)

O=C(O)c1cccc(N2C(=O)c3ccc4c(=O)n5c6cc(C(=O)O)ccc6nc5c5ccc(c3c45)C2=O)c1 [Compound 93, 2-(3-Carboxy-phenyl)-1,3,6-trioxo-1,2,3,6-tetrahydro-benzo[lmn]benzo[4,5]imidazo[2,1-b][3,8]phenanthroline-9-carboxylic acid]
PC12 (TrkA & p75) Single point (% max binding) Mean (PC12 (TrkA & p75); compound concentration 50 μM): ** (30 > ** > 50)

O=C(O)CCCN1C(=O)c2ccc3c4c(ccc(c24)C1=O)C(=O)OC3=O [Compound 94]
PC12 (TrkA & p75) Single point (% max binding) Mean (PC12 (TrkA & p75); compound concentration 25 μM): *** (0 > *** > 30)

O=C(O)CCCN1C(=O)c2ccc3c(=O)n4c5cc(C(=O)O)ccc5nc4c4ccc(c2c34)C1=O [Compound 95, 2-(3-Carboxy-propyl)-1,3,6-trioxo-1,2,3,6-tetrahydro-benzo[lmn]benzo[4,5]imidazo[2,1-b][3,8]phenanthroline-9-carboxylic acid]
PC12 (TrkA & p75) Single point (% max binding) Mean (PC12 (TrkA & p75); compound concentration 25 μM): * (* > 50)

O=C(O)c1ccc(Cl)c(N2C(=O)c3ccc4c(=O)n5c6ccccc6nc5c5ccc(c3c45)C2=O)c1 [Compound 98, 2-(5-Carboxy-2-chloro-phenyl)-1,3,6-trioxo-1,2,3,6-tetrahydro-benzo[lmn]benzo[4,5]imidazo[2,1-b][3,8]phenanthroline-9]
PC12 (TrkA & p75) Single point (% max binding) Mean (PC12 (TrkA & p75); compound concentration 25 μM): *** (0 > *** > 30)

O=C(O)c1ccc(Cl)c(N2C(=O)c3ccc4c(=O)n5c6cc(Cl)ccc6nc5c5ccc(c3c45)C2=O)c1 [Compound 99, 2-(5-Carboxy-2-chloro-phenyl)-1,3,6-trioxo-1,2,3,6-tetrahydro-9-chloro-benzo[lmn]benzo[4,5]imidazo[2,1-b][3,8]phenanthroline]
PC12 (TrkA & p75) Single point (% max binding) Mean (PC12 (TrkA & p75); compound concentration 10 μM): *** (0 > *** > 30)

O=C(O)c1ccc(Cl)c(N2C(=O)c3ccc4c(=O)n5c6cc([N+](=O)[O-])ccc6nc5c5ccc(c3c45)C2=O)c1 [Compound 100, 2-(5-Carboxy-2-chloro-phenyl)-1,3,6-trioxo-1,2,3,6-tetrahydro-9-nitro-benzo[lmn]benzo[4,5]imidazo[2,1-b][3,8]phenanthroline]
PC12 (TrkA & p75) Single point (% max binding) Mean (PC12 (TrkA & p75); compound concentration 10 μM): *** (0 > *** > 30)

COc1ccc2nc3c4ccc5c6c(ccc(c(=O)n3c2c1)c64)C(=O)N(c1cc(C(=O)O)ccc1Cl)C5=O [Compound 101, 2-(5-Carboxy-2-chloro-phenyl)-1,3,6-trioxo-1,2,3,6-tetrahydro-9-methoxy-benzo[lmn]benzo[4,5]imidazo[2,1-b][3,8]phenanthroline]
PC12 (TrkA & p75) Single point (% max binding) Mean (PC12 (TrkA & p75); compound concentration 10 μM): ** (30 > ** > 50)

COC(=O)c1ccc2nc3c4ccc5c6c(ccc(c(=O)n3c2c1)c64)C(=O)N(c1cc(C(=O)O)ccc1Cl)C5=O [Compound 102, Methyl-2-(5-Carboxy-2-chloro-phenyl)-1,3,6-trioxo-1,2,3,6-tetrahydro-benzo[lmn]benzo[4,5]imidazo[2,1-b][3,8]phenanthroline-9-carboxylic acid ester]
PC12 (TrkA & p75) Single point (% max binding) Mean (PC12 (TrkA & p75); compound concentration 10 μM): * (* > 50)
